The structures appear in SMILES notation. pIC50: −log10 of the molar value. Read-outs that look alike come from different tables or passages of the source.

Data on two molecules can be found in US20250129096A1, “ANNULATED 2-AMINO-3-CYANO THIOPHENES AND DERIVATIVES FOR THE TREATMENT OF CANCER” (Boehringer Ingelheim Int'l GmbH Corp., priority 2021, published 2025).

One data set has as its target T1, KRAS (G12D)::SOS1 (Homo sapiens, UniProt P01116, G12D).
T1 construct: KRAS (G12D) 1-169, N-terminal 6His-tag, C-terminal avi-tag; 6His-tag (N); purchased Xtal BioStructures, Inc. (KRAS G12D); Viva Biotech Ltd (SOS1)
As to the kind of experiment: KRAS::SOS1 AlphaScreen binding assay, KRAS G12D. How it is done: (§1) Low IC50 values in this assay setting are indicative of strong inhibition of protein-protein interaction between SOS1 and KRAS:
(§2) These assays measure the inhibitory effect of compounds on KRAS mutant protein-protein interactions using the Alpha Screen technology by Perkin Elmer.
(§3) For the chosen highest assay concentration of 100 μM, 150 nL of compound solution are transferred from a 10 mM DMSO compound stock solution. A series of eleven fivefold dilutions per compound are transferred to the assay plate, compound dilutions are tested in duplicates. DMSO are added as backfill to a total volume of 150 nL.
(§4) The assays run on a fully automated robotic system in a darkened room below 100 Lux. To 150 nl of compound dilution 10 μl of a mix including KRAS mutant protein, SOS1 (final assay concentrations see above) and GDP nucleotide (Sigma G7127; final assay concentration 10 μM) in assay buffer (1×PBS, 0.1% BSA, 0.05% Tween 20) are added into columns 1-24. After 30 minutes incubation time 5 μl of Alpha Screen bead mix in assay buffer are added into columns 1-23.
(§5) Plates are kept at room temperature in a darkened incubator. After an additional 60 minutes incubation time the signal is measured in a PerkinElmer Envision HTS Multilabel Reader using the AlphaScreen specs from PerkinElmer.
(§6) IC50 values are calculated and analyzed with Boehringer Ingelheim's MEGALAB IC50 application using a 4 parametric logistic model.
(In Alpha technology, singlet oxygen from a donor bead excites a nearby acceptor bead.)

Another data set concerns the target T2, KRAS (G12C)::SOS1 (Homo sapiens, UniProt P01116, C118S/C51S/C80L/G12C).
T2 construct: KRAS (G12C) 1-169, N-terminal 6His-tag for purification, cleaved off; 6His-tag (N, cleaved yes)
As to the kind of experiment: KRAS::SOS1 AlphaScreen binding assay, KRAS G12C. How it is done:
as §1, §2, §3, §4, §5, §6

Another data set has as its target KRAS G12D Ba/F3 cells (Homo sapiens, UniProt P01116, G12D, cells depend on it). The data set can be described thus: Ba/F3 proliferation assay, KRAS G12D. As to conditions: 72 h, AlamarBlue; read-out: KRAS G12D Ba/F3 IC50. Format: cell-based. How it is done: (§7) To generate KRASG12-dependent Ba/F3 models, Ba/F3 cells are transduced with retroviruses containing vectors that harbor KRASG12 isoforms. Platinum-E cells (Cell Biolabs) are used for retrovirus packaging. Retrovirus is added to Ba/F3 cells. To ensure infection, 4 μg/mL polybrene is added and cells are spinfected. […] Cells with an infection efficiency of 10% to 20% are further cultivated and puromycin selection with 1 μg/mL is initiated. As a control, parental Ba/F3 cells are used to show selection status. Selection is considered successful when parental Ba/F3 cells cultures died. To evaluate the transforming potential of KRASG12 mutations, the growth medium is no longer supplemented with IL-3. Ba/F3 cells harboring the empty vector are used as a control. Approximately ten days before conducting the experiments, puromycin is left out. […] All treatments are performed in technical duplicates. […] AlamarBlue™(ThermoFisher), a viability stain, is added and fluorescence measured in the PerkinElmer Envision HTS Multilabel Reader. The raw data are imported into and analyzed with the Boehringer Ingelheim proprietary software MegaLab (curve fitting based on the program PRISM, GraphPad Inc.).
In general terms: Alamar Blue is a resazurin reagent that responds to reducing activity.

In another data set the target is KRAS G12C Ba/F3 cells (Homo sapiens, UniProt P01116, G12C, cells depend on it). The data set can be described thus: Ba/F3 proliferation assay, KRAS G12C. The data set is classed as cell-based. The conditions noted are these: 72 h, AlamarBlue; read-out: KRAS G12C Ba/F3 IC50. How it is done: as §7
Sequence of KRAS G12C Ba/F3 cells (P01116 whole entry G12C): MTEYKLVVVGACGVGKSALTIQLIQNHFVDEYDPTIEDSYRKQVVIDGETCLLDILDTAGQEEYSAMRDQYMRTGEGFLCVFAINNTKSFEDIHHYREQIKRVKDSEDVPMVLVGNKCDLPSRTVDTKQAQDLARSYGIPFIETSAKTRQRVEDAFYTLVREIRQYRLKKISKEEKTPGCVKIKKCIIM
Data set [1] relates to NCI-H358 cells (NSCLC, G12C). The data set can be described thus: NCI-H358 CTG proliferation assay (120 h), assay 2. The data set is classed as cell-based. The conditions noted are these: Homo sapiens, CellTiter-Glo, 384-well, 200 cells per well. How it is done:
NCI-1H358 cells (ATCC No. CRL-5807) are dispensed into white bottom opaque 96 well plates (Perkin Elmer cat no. 5680) at a density of 2000 cells per well in 100 μL RPM 1-1640 ATCC-Formulation (Gibco #A10491)+10% FCS (fetal calf serum) (assay 1) or into black 384-well plates, flat and clear bottom (Greiner, PNr. 781091) at a density of 200 cells per well in 60 μl RPMI-1640 ATCC-Formulation (Gibco #A10491)+10% FCS (fetal calf serum) (assay 2). […] Compounds (10 mM stock in DMSO) are added at logarithmic dose series using the HP Digital Dispenser D300 (Tecan) (assay 1) or the ECHO acoustic liquid handler system (Beckman Coulter) (assay 2), normalizing for added DMSO and including DMSO controls. For the TO time point measurement, untreated cells are analyzed at the time of compound addition. Plates are incubated for 120 h, and cell viability is measured using CellTiter-Glo luminescent cell viability reagent (Promega product code G7570). Viability (stated as percent of control) is defined as relative luminescence units RLU of each well divided by the RLU of cells in DMSO controls. IC50 values are determined from viability measurements by non-linear regression using a four-parameter model.
(Cellular ATP, detected with luciferase, serves as a proxy for viable cell number.)

In another data set the target is T3, CYP3A4 (Homo sapiens, UniProt P08684).
T3 construct: assayed in human liver microsomes (0.02 mg/mL) with midazolam (15 μM) as a substrate; from tissue; host or cells: human liver microsomes
T3 sequence (P08684 whole entry): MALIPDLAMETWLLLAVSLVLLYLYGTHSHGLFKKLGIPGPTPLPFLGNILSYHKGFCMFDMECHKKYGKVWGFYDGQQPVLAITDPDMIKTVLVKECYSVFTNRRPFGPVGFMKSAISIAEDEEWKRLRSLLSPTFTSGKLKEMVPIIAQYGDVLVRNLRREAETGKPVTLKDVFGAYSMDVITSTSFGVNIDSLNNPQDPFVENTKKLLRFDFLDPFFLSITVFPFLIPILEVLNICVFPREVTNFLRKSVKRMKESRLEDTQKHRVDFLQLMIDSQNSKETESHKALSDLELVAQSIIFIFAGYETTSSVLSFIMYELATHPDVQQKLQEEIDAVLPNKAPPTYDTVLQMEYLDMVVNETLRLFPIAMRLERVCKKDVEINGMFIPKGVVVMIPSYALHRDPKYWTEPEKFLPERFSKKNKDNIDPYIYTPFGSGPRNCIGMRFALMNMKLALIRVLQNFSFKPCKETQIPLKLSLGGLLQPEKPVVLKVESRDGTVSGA
As to the kind of experiment: Mechanism based inhibition of CYP3A4 assay (MBI 3A4). The conditions noted are these: 25 uM, hydroxy-midazolam formation after 30 min preincubation relative to 0 min, human liver microsomes. The data set is classed as in vitro ADME. How it is done: After preincubation, the incubate is diluted 1:10 and the substrate midazolam is added for the main incubation (15 min). The main incubation is quenched with acetonitrile and the formation of hydroxy-midazolam is quantified via LC/MS-MS. The formation of hydroxy-midazolam from the 30 min preincubation relative to the formation from the 0 min preincubation is used as a readout. Values of less than 100% mean that the substrate midazolam is metabolized to a lower extent upon 30 min preincubation compared to 0 min preincubation. In general low effects upon 30 min preincubation are desired (corresponding to values close to 100%/not different to the values determined with water control).

The nature of data set [2]: Solubility measurement (DMSO solution precipitation method). The data set is classed as physicochemical. The conditions noted are these: aqueous buffer, kinetic from dmso stock, ambient temperature. How it is done:
The DMSO solution is diluted with an aqueous medium (McIlvaine buffer with pH=4.5 or 6.8) to a final concentration of 250 μM. After 24 h of shaking at ambient temperature a potentially formed precipitate is removed by filtration. The concentration of the test compound in the filtrate is determined by LC-UV methods by calibrating the signal to the signal of a reference solution with complete dissolution of the test compound in acetonitrile/water (1:1) with known concentration.

A short description of the next data set: Caco-2 assay. Format: in vitro ADME. The conditions noted are these: human; for Papp A→B at 90 min, 10 μM: Caco-2, apical to basolateral, pH 7.4, read-out: Caco PappAB; for efflux ratio at 90 min, 10 μM: Caco-2, pH 7.4, efflux ratio PappBA/PappAB, read-out: Caco ER. The source says: The assay provides information on the potential of a compound to pass the cell membrane, on the extent of oral absorption as well as on whether the compound is actively transported by uptake and/or efflux transporters. Permeability measurements across polarized, confluent Caco-2 cell monolayers grown on permeable filter supports (Corning, catalog #3391) are used. […] The receiver and donor compartments contain 0.25% bovine serum albumine (BSA) in assay buffer. Passive diffusion and/or active transport of compounds across the monolayer is measured in both apical to basolateral (a-b) and basolateral to apical (b-a) direction. a-b permeability (PappAB) represents drug absorption from the intestine into the blood and b-a permeability (PappBA) drug secretion from the blood back into the intestine via both passive permeability as well as active transport mechanisms mediated by efflux and uptake transporters that are expressed on the Caco-2 cells. After a pre-incubation of 25-30 min at 37° C., at predefined time points (0, 30, 60 and 90 min), samples were taken from the receiver and donor compartment, respectively. Concentrations of test compounds in samples were measured by HPLC/MS/MS, samples from the donor compartment were diluted 1:50 (v:v) with assay buffer, samples from receiver compartment were measured without dilution.
Apparent permeabilities in a-b (PappAB) and b-a (PappBA) directions are calculated according to the formula:
[formula] • Vrec [mL]: buffer volume in receiver compartment • Cdon [μmol/mL]: concentration of test compound in donor compartment at t=0 • ΔCrec: difference between concentrations of test compound in receiver compartment at start and end of incubation time • Δt: Incubation time • Vrec·ΔCrec/Δt [μmol/min]: Amount of compound transferred to receiver compartment per time • A [cm^2]: filter surface
Caco-2 efflux ratios (ER) are calculated as the ratio of PappBA/PappAB.

[3] abbreviates: McIlvaine buffer pH 4.5, 24 h, read-out: solubility pH 4.5.
Setting [4] is: McIlvaine buffer pH 6.8, 24 h, read-out: solubility pH 6.8.

T2 sequence (P01116 1-169 isoform P01116-2 G12C/C51S/C80L/C118S): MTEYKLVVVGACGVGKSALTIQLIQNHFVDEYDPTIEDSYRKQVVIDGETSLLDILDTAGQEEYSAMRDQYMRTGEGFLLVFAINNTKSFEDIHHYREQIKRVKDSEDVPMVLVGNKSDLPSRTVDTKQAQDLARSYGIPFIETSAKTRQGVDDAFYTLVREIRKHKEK
T1 sequence (P01116 1-169 isoform P01116-2 G12D): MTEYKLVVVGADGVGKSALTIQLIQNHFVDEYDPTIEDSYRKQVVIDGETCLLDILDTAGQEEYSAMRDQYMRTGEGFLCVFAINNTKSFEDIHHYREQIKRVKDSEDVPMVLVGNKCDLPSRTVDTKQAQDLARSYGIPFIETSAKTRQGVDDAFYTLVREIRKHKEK
Sequence of KRAS G12D Ba/F3 cells (P01116 whole entry G12D, canonical isoform): as the sequence (P01116 whole entry G12C) above, with C12D counted along it

On to `C[C@H](Oc1nccc(-c2noc3c2CCC[C@@]32CCCc3sc(N)c(C#N)c32)n1)[C@@H]1CCCN1C` [IIb-6], for which the pIC50 (usually the negative decadic logarithm of the IC50, by convention in mol/L) is 8.70 at KRAS (G12D)::SOS1, 8.40 on KRAS (G12C)::SOS1 and 6.40 in data set [1]. In addition, the GI50 at KRAS G12D Ba/F3 cells turned out to be 0.013 µM; on KRAS G12C Ba/F3 cells, 0.019 µM. For the same molecule, the “MBI 3A4” value at CYP3A4 is 52%. For the same molecule, the solubility at 24 h in data set [2] (setting [3]) and in data set [2] (setting [4]) was more than 0.11 mg/mL in each case. The Papp A→B at 90 min, 10 μM in “Caco-2 assay” was determined as 210 nm/s. Besides, the efflux ratio at 90 min, 10 μM in “Caco-2 assay” came to 1.3.
On to `C[C@H](Oc1nccc(-c2onc3c2CCC[C@@]32CCCc3sc(N)c(C#N)c32)n1)[C@@H]1CCCN1C` [Ib-1], for which the pIC50 was 8.70 on KRAS (G12D)::SOS1, 8.52 at KRAS (G12C)::SOS1 and 5.84 in data set [1]. In addition, the GI50 at KRAS G12D Ba/F3 cells turned out to be 0.024 µM; at KRAS G12C Ba/F3 cells, 0.051 µM. In addition, the “MBI 3A4” value on CYP3A4 was determined as 54%. Also, the solubility at 24 h in data set [2] (setting [3]) and in data set [2] (setting [4]) was more than 0.11 mg/mL in each case. In addition, in “Caco-2 assay”, the Papp A→B at 90 min, 10 μM was 260 nm/s. Also, the efflux ratio at 90 min, 10 μM in “Caco-2 assay” worked out at 1.3.
